The data set in a line: HILIC/SALT. The data set is classed as physicochemical. Particulars: isocratic acetonitrile 0%, 10%, 20%, 30%, 40%, 50% and 60% in 0.2% aq. H3PO4, 30 °C.

For “Ac-KWKSFLKTFSKAKKKKLKTLLKAISK-NH2 [Peptide D14]”, the “retention on Penta-HILIC column” value is recorded as “No retention”.

(Values after paper PMC3639484 (Journal of chromatography. A, 2013).)
